The values below come from patent US6020334A, “Piperazinones, their production and use” (Takeda Chemical Industries, Ltd., priority 1995, dated 2000).

The test system of data set [1] is platelet aggregation by ADP. The data set can be described thus: Platelet aggregation in vitro (inhibition of ADP-induced aggregation of guinea pig PRP, Born's method). Type of data set: cell-based, guinea pigs. The settings on record: Cavia porcellus, ADP 0.6-1 μM, 37° C. The protocol:
Determination of Platelet Aggregation in Vitro
Blood was collected from abdominal aorta of guinea pigs under anesthesia with pentobarbital (20 mg/kg, i.p.) using sodium citrate as an anticoagulant (final concentration: 0.315%). The sodium citrate--supplemented blood was centrifuged at 950 rpm for 10 minutes and 2,000 rpm for 10 minutes respectively at room temperature to obtain platelet rich plasma (PRP) and platelet poor plasma (PPP). The number of platelet was counted an automatic platelet counter (Sysmex E2500, Toaiyo-denshi). PRP was diluted with PPP to adjust the number of platelets to be 500,000/μl. Platelet aggregation was measured as follows, in accordance with Born's method (Nature 194: 927, 1962), using an 8-channel aggregometer (NBS HEMA TRACER VI, Niko Bioscience Inc.): The PRP (250 μl) was incubated at 37° C. for 2 minutes, to which was then added 25 μl of a test drug solution. Two minutes later, 25 μl of an agent (ADP) for causing agglutination. The effect of the test drug was shown by the inhibition rate of the maximum aggregation rate of the test group against that of the control group. ADP was used in the minimum concentration (0.6-1 μM) capable of obtaining maximum aggregation.

In data set [2] the test system is ex vivo platelet aggregation. Description: Ex vivo platelet aggregation inhibitory action (PRP of infused guinea pigs, ADP). Type of data set: in vivo. The settings on record: continuous i.v. infusion for 90 minutes, ADP 0.5 to 1 μM. The protocol: (§1) Bleeding Time in Guinea Pigs and Determination of Ex Vivo Platelet Aggregation Inhibitory Action
(§2) Male Hartley guinea pigs (body weight: about 400 g) were employed. These animals were intravenously infused continuously, under anesthesia with pentobarbital, with a physiological saline solution or receptor-antagonistdissolved in the solution at a dose of 10 μl/kg/min.
After 90 minutes of the continuous infusion, blood was collected from abdominal aorta using sodium citrate (whole blood:3.15% citric acid solution=9:1 by volume). […]
Platelet aggregation was measured by using an 8-channel photo-extinction type platelet aggregometer (NBS/HEMA TRACER 801, Niko Bioscience). […] The PRP was set in the aggregometer and incubated for two minutes at 37° C., to which was added 20 μl of ADP (0.5 to 1 μM), and the changes of transmittance were recorded. The difference of PRP and PPP in photo-extinction was assumed 100%, and, with the maximum photo-extinction rates, the maximum aggregation rates (%) were determined. The effects of the drugs were determined by comparing the maximum aggregation rates (%) of animals continuously infused with a physiological saline solution with those of animals continuously infused with receptor antagonist.

Data set [3] can be described thus: Bleeding time in guinea pigs (continuous intravenous infusion, Simplate R incision). Type of data set: in vivo. The note with it: continuous i.v. infusion for 90 minutes. The protocol:
as §1, §2
After the continuous infusion for 90 minutes, the thigh of each animal was applied with a rubber cuff and charged with 40 mmHg, then given an incised sound with Simplate R (Organon Teknika). Thereafter, at 30 sec. each interval, blood was absorbed into a filter paper. The time until no more blood was absorbed into the filter paper was measured. The bleeding time of normal five guinea pigs was about 276 sec.

The structures appear in SMILES notation. pIC50: −log10 of the molar value.

Turning to `N=C(N)c1ccc(C(=O)NCC(=O)N2CCN(CC(=O)O)C(=O)[C@@H]2CCCN)cc1` [compound 1], in data set [1], the pIC50 (in general, the IC50 on a negative log10 scale, so that one unit is a factor of ten) is 6.28.
Regarding `N=C(N)c1ccc(C(=O)NCCC[C@H]2C(=O)N(CC(=O)O)CCN2C(=O)CNC(=O)c2ccc(C(=N)N)cc2)cc1` [compound 2], the “Inhibitory rate (ex vivo platelet aggregation inhibition)” value in data set [2] (2 μg/kg/min) came to 100%. Further, the pIC50 in data set [1] is 7.43. This compound also came in with a Bleeding time in data set [3] (2 μg/kg/min) of 308 ± 33 s.
As to `COc1ccc(C[C@H](NC(=O)c2ccc(C(=N)N)cc2)C(=O)N2CCN(CC(=O)O)C(=O)[C@@H]2CCCN)cc1` [compound 5], the pIC50 in data set [1] was 7.80.
In data set [1], `COc1ccc(C[C@H](NC(=O)c2ccc(C(=N)N)cc2)C(=O)N2CCN(CC(=O)O)C(=O)[C@@H]2CCCNC(=O)c2ccc(C(=N)N)cc2)cc1` [compound 6] gave a pIC50 of 7.70.
In turn, `COc1ccc(C[C@H](NC(=O)c2ccc(C(=N)N)cc2)C(=O)N2CCN(CC(=O)O)C(=O)[C@@H]2CCCCN)cc1` [compound 7] showed a pIC50 in data set [1] of 7.72.
On the same count and under the same terms, to `COc1ccc(C[C@H](NC(=O)c2ccc(C(=N)N)cc2)C(=O)N2CCN(CC(=O)O)C(=O)[C@@H]2CCCCNC(=O)c2ccc(C(=N)N)cc2)cc1` [compound 8] belongs 7.92; to `N=C(N)c1ccc(C(=O)NCC(=O)N2CCN(CC(=O)O)C(=O)[C@@H]2CCCNC(=O)CCCCCN)cc1` [compound 9], 6.74.
As for `N=C(N)c1ccc(C(=O)NCC(=O)N2CCN(CC(=O)O)C(=O)[C@@H]2CCCNC(=O)CCCCN)cc1` [compound 10], the pIC50 in data set [1] was 6.70.
The same measure, in the same setting: under `N=C(N)c1ccc(C(=O)NCC(=O)N2CCN(CC(=O)O)C(=O)[C@@H]2CCCNC(=O)CCCN)cc1` [compound 11] stands 6.64; under `COc1ccc(C[C@H](NC(=O)c2ccc(C(=N)N)cc2)C(=O)N2CCN(CC(=O)O)C(=O)[C@@H]2CCCCNC(=N)N)cc1` [compound 12], 7.60; under `N=C(N)NCCCC(=O)NCCC[C@H]1C(=O)N(CC(=O)O)CCN1C(=O)CNC(=O)c1ccc(C(=N)N)cc1` [compound 13], 6.96.
For `N=C(N)Nc1ccc(C(=O)NCCC[C@H]2C(=O)N(CC(=O)O)CCN2C(=O)CNC(=O)c2ccc(NC(=N)N)cc2)cc1` [compound 15], the “Inhibitory rate (ex vivo platelet aggregation inhibition)” value in data set [2] (3 μg/kg/min) amounted to 100%. This compound showed a pIC50 in data set [1] of 7.29. Moreover, the Bleeding time in data set [3] (3 μg/kg/min) is 250 ± 26 s.
Regarding `N=C(N)Nc1ccc(C(=O)NCC[C@H]2C(=O)N(CC(=O)O)CCN2C(=O)CNC(=O)c2ccc(C(=N)N)cc2)cc1` [compound 16], the pIC50 in data set [1] was 7.36.
Same read-out and setting: under `N=C(N)c1ccc(C(=O)NCC(=O)N2CCN(CC(=O)O)C(=O)[C@@H]2CN)cc1` [compound 17] stands 6.62; under `N=C(N)c1ccc(C(=O)NCC(=O)N2CCN(CC(=O)O)C(=O)[C@@H]2CNC(=O)c2ccc(C(=N)N)cc2)cc1` [compound 18], 6.89; under `N=C(N)c1ccc(C(=O)NCC[C@H]2C(=O)N(CC(=O)O)CCN2C(=O)CNC(=O)c2ccc(C(=N)N)cc2)cc1` [compound 19], 6.74.
Still for that read-out and setting: under `N=C(N)c1ccc(C(=O)NCCC[C@@H]2C(=O)N(CC(=O)O)CCN2C(=O)CNC(=O)c2ccc(C(=N)N)cc2)cc1` [compound 22] stands 5.42.
Turning to `N=C(N)Nc1ccc(C(=O)NCCC[C@H]2C(=O)N(CC(=O)O)CCN2C(=O)CNC(=O)c2ccc(C(=N)N)cc2)cc1` [compound 23], the pIC50 in data set [1] was 7.77.
On the same count and under the same terms, to `N=C(N)c1ccc(NC(=O)CC[C@H]2C(=O)N(CC(=O)O)CCN2C(=O)CNC(=O)c2ccc(C(=N)N)cc2)cc1` [compound 24] belongs 6.60.
On the same count and under the same terms, under `N=C(N)Cc1ccc(C(=O)NC[C@H]2C(=O)N(CC(=O)O)CCN2C(=O)CNC(=O)c2ccc(C(=N)N)cc2)cc1` [compound 25] stands 7.27; under `N=C(N)NCc1ccc(C(=O)NC[C@H]2C(=O)N(CC(=O)O)CCN2C(=O)CNC(=O)c2ccc(C(=N)N)cc2)cc1` [compound 26], 7.08; under `COc1ccc(C[C@H](NC(=O)c2ccc(C(=N)N)cc2)C(=O)N2CCN(CC(=O)O)C(=O)[C@@H]2CCCNC(=O)CCCCCN)cc1` [compound 27], 7.74.
The same measure, in the same setting: under `COc1ccc(C[C@H](NC(=O)c2ccc(C(=N)N)cc2)C(=O)N2CCN(CC(=O)O)C(=O)[C@@H]2CCCCNC(=O)CN)cc1` [compound 28] stands 7.72; under `COC(=O)ON=C(N)c1ccc(C(=O)NCCC[C@H]2C(=O)N(CC(=O)O)CCN2C(=O)CNC(=O)c2ccc(C(N)=NOC(=O)OC)cc2)cc1` [compound 30], 4.72; under `COC(=O)ON=C(N)c1ccc(C(=O)NCCC[C@H]2C(=O)N(CC(=O)O)CCN2C(=O)CNC(=O)c2ccc(C(=N)N)cc2)cc1` [compound 31], 6.72.
Regarding `N=C(N)c1ccc(C(=O)NCCC[C@H]2C(=O)N(CC(=O)O)CCN2C(=O)CNC(=O)c2ccc(CCN)cc2)cc1` [compound 32], the pIC50 in data set [1] was 7.28.
